From US20240247080A1, “GLP1/GIP/NPY2 RECEPTOR TRIPLE AGONISTS” (Boehringer Ingelheim International GmbH, priority 2022, published 2024)
Read-outs that look alike come from different tables or passages of the source. Starred links: 1 amine or outer side, 2 acyl side, 3 side chain; linkers in the order of their positions; H or OH if unused. Non-standard residues stand in square brackets, D forms with d. Groups on a side chain read outwards from the residue. *: point of attachment. C20 diacid = O=C(O)CCCCCCCCCCCCCCCCCCC(=O)*; C18 diacid = O=C(O)CCCCCCCCCCCCCCCCC(=O)*; γGlu = O=C(O)[C@H](CCC(=O)[*:2])N[*:1]; εLys = N[C@@H](CCCCN[*:1])C(=O)[*:2]; AEEA = NCCOCCOCC(=O)O; Aib = CC(C)(N)C(=O)O; Ahx = NCCCCCC(=O)O

Columns and labels:
hGIPR = biological target: T1, hGIPR (Homo sapiens, UniProt P48546); assay: hGIPR CreLuc reporter gene assay in 0.5% and 100% plasma; type: cell-based; conditions: CreLuc reporter gene assay
T1 construct: expressed in transfected cells; host or cells: CHO cells carrying a CRE-luciferase reporter gene
T1 sequence (P48546 22-466): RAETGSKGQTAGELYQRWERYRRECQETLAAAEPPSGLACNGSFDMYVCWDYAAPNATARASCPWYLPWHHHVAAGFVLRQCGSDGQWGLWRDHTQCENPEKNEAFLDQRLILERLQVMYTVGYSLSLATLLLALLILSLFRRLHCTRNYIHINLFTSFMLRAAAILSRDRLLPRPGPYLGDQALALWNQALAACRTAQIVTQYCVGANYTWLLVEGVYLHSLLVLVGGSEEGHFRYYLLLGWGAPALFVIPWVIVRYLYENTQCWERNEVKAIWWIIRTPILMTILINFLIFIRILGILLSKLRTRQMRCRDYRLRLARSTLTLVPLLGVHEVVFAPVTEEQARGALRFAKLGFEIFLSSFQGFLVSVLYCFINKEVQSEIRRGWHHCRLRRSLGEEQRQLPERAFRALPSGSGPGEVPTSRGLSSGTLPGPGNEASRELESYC
Source text: (§1) Example 1: hGLPR/hGIPR/hNPY2R CreLuc Assay in 0.5% and 100% Plasma
(§2) CHO and HEK-293 recombinant cell lines express a luciferase reporter gene under control of the cAMP responsive element (CRE). As a second recombinant protein the GLP-1 and NPY2 receptors were expressed in the reporter gene HEK cells, and the GIP receptor was expressed in the reporter gene CHO cells, respectively. Stimulation of these recombinant cells with an agonist leads to an increase of intracellular cAMP levels. In the presence of cAMP, the transcription factor CRE binding protein (CREB) binds to the CRE and to the CREB binding protein (CBP), which leads to transcription of the luciferase reporter gene. Peptides upon serial-dilution in 100% DMSO were transferred into 384-well assay plates with 5 μl pre-dispensed assay buffer (1×HBSS, 20 mM HEPES, pH7.4 supplemented with 0.5% human plasma) using acoustic dispensing on a Labcyte ECHO. Cryo-preserved transgenic reporter gene cells were thawed in assay buffer. 20 μl (10.000 cells/well) were added to the plate with the peptides and incubated for 4 hours at 37° C. in a humidified incubator. Following incubation, assay plates are equilibrated to room temperature, followed by addition of 25 μl of Bright-GIo™ Luciferase reagent, incubation at room temperature for 10 minutes and analysis of luminescence (Envision Reader). Concentration response evaluation of compounds was performed with 8 concentrations of peptides (covering four decades). EC50 values were calculated by non-linear regression using sigmoid concentration-response with variable slope. The same assays were run in the presence of 100% plasma with no additional buffer constituents.

hGLP1R = biological target: T2, hGLP1R (Homo sapiens, UniProt P43220); assay: hGLP1R CreLuc reporter gene assay in 0.5% and 100% plasma; type: cell-based; conditions: CreLuc reporter gene assay
T2 construct: expressed in transfected cells; host or cells: HEK-293 cells carrying a CRE-luciferase reporter gene
Source text: as §1, §2

[1] = 0.5% human plasma, read-out: hGIPR 0.5% hP
[2] = 0.5% human plasma, read-out: hGLP1R 0.5% hP
[3] = 100% human plasma, read-out: hGIPR 100% hP
[4] = 100% human plasma, read-out: hGLP1R 100% hP

T2 sequence (P43220 24-463): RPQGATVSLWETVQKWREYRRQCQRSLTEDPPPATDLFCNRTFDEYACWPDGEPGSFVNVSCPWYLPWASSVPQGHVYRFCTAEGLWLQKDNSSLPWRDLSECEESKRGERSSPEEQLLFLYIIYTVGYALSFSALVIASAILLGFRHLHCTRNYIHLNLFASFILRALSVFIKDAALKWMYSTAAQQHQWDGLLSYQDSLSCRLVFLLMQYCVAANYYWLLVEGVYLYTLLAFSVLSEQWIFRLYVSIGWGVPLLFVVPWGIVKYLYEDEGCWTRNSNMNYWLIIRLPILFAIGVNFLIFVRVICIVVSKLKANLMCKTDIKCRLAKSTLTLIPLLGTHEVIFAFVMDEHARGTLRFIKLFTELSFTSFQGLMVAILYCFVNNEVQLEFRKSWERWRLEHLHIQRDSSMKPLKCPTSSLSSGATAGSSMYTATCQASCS

Row | EC50 (hGIPR; [1]) [nM] | EC50 (hGLP1R; [2]) [nM] | EC50 (hGIPR; [3]) [nM] | Substance | other results
1 |  |  |  | H-Y[Aib]EGTFTSDLSI[Aib]LEKQAQ[Aib]AFVEWLIK([εLys-γGlu-γGlu-γGlu-γGlu-γGlu-γGlu-C20 diacid])GGPSSGASLRHYYNWLTRQRY-NH2 [Compound 172, Y-Aib-E-G-T-F-T-S-D-L-S-I-Aib-L-E-K-Q-A-Q-Aib-A-F-V-E-W-L-I-K(1,3)-GGPSSGASLRHYYNWLTRQRY-NH2.C20DA-gGlu-gGlu-gGlu-gGlu-gGlu-gGlu-eLys(1,2)] | EC50 (hGIPR; hGIPR 0.5% hP, 0.5% human plasma): 0.21 nM; EC50 (hGIPR; hGIPR 100% hP, 100% human plasma): 1.83 nM; EC50 (hGLP1R; hGLP1R 0.5% hP, 0.5% human plasma): 0.07 nM; EC50 (hGLP1R; hGLP1R 100% hP, 100% human plasma): 2 nM
2 | 1.03 | 0.3 |  | H-Y[Aib]EGTFTSDYSI[Aib]LEDQAQ[Aib]AFVEWLIK([εLys-γGlu-γGlu-γGlu-γGlu-γGlu-γGlu-C20 diacid])GGPSSGASLRHYYNWLTRQRY-NH2 [Compound 90, Y-Aib-E-G-T-F-T-S-D-Y-S-I-Aib-L-E-D-Q-A-Q-Aib-A-F-V-E-W-L-I-K(1,3)-GGPSSGASLRHYYNWLTRQRY-NH2.C20DA-gGlu-gGlu-gGlu-gGlu-gGlu-gGlu-eLys(1,2)] | 
3 | 0.16 | 0.14 | 1.23 | H-Y[Aib]EGTFTSDYSI[Aib]LEEQAQ[Aib]AFVEWLIK([εLys-γGlu-γGlu-γGlu-γGlu-γGlu-C20 diacid])GGPSSGASLRHYYNWLTRQRY-NH2 [Compound 181, Y-Aib-E-G-T-F-T-S-D-Y-S-I-Aib-L-E-E-Q-A-Q-Aib-A-F-V-E-W-L-I-K(1,3)-GGPSSGASLRHYYNWLTRQRY-NH2.C20DA-gGlu-gGlu-gGlu-gGlu-gGlu-eLys(1,2)] | 
4 | 0.14 | 0.11 | 1.15 | H-Y[Aib]EGTFTSDYSI[Aib]LEEQAQ[Aib]AFVQWLIK([εLys-AEEA-γGlu-γGlu-γGlu-γGlu-γGlu-C20 diacid])GGPSSGASLRHYYNWLTRQRY-NH2 [Compound 45, Y-Aib-E-G-T-F-T-S-D-Y-S-I-Aib-L-E-E-Q-A-Q-Aib-A-F-V-Q-W-L-I-K(1,3)-GGPSSGASLRHYYNWLTRQRY-NH2.C20DA-gGlu-gGlu-gGlu-gGlu-gGlu-OEG-eLys(1,2)] | EC50 (hGLP1R; [4]): 1.6 nM
5 | 0.13 | 0.09 | 1.61 | H-Y[Aib]EGTFTSDYSI[Aib]LEEQAQ[Aib]AFVQWLIK([εLys-γGlu-γGlu-γGlu-γGlu-γGlu-C20 diacid])GGPSSGASLRHYYNWLTRQRY-NH2 [Compound 34, Y-Aib-E-G-T-F-T-S-D-Y-S-I-Aib-L-E-E-Q-A-Q-Aib-A-F-V-Q-W-L-I-K(1,3)-GGPSSGASLRHYYNWLTRQRY-NH2.C20DA-gGlu-gGlu-gGlu-gGlu-gGlu-eLys(1,2)] | EC50 (hGLP1R; [4]): 1.39 nM
6 | 0.8 | 1.48 |  | H-Y[Aib]EGTFTSDYSI[Aib]LEKEKQ[Aib]AFVEWLIK([εLys-γGlu-γGlu-γGlu-γGlu-γGlu-γGlu-C20 diacid])GGPSSGASLRHYYNWLTRQRY-NH2 [Compound 69, Y-Aib-E-G-T-F-T-S-D-Y-S-I-Aib-L-E-K-E-K-Q-Aib-A-F-V-E-W-L-I-K(1,3)-GGPSSGASLRHYYNWLTRQRY-NH2.C20DA-gGlu-gGlu-gGlu-gGlu-gGlu-gGlu-eLys(1,2)] | 
7 | 0.38 | 0.44 |  | H-Y[Aib]EGTFTSDYSI[Aib]LEKQAE[Aib]AFVEWLIK([γGlu-γGlu-γGlu-γGlu-C20 diacid])GGPSEGASLRHYYNWLTRQRY-NH2 [Compound 280, Y-Aib-E-G-T-F-T-S-D-Y-S-I-Aib-L-E-K-Q-A-E-Aib-A-F-V-E-W-L-I-K(1,3)-GGPSEGASLRHYYNWLTRQRY-NH2.C20DA-gGlu-gGlu-gGlu-gGlu(1,2)] | 
8 | 0.18 | 0.15 | 1.15 | H-Y[Aib]EGTFTSDYSI[Aib]LEKQAQ[Aib]AFVEWLIK([AEEA-AEEA-γGlu-γGlu-γGlu-γGlu-γGlu-C18 diacid])GGPSSGASLRHYYNWLTRQRY-NH2 [Compound 261, Y-Aib-E-G-T-F-T-S-D-Y-S-I-Aib-L-E-K-Q-A-Q-Aib-A-F-V-E-W-L-I-K(1,3)-GGPSSGASLRHYYNWLTRQRY-NH2.C18DA-gGlu-gGlu-gGlu-gGlu-gGlu-OEG-OEG(1,2)] | 
9 | 0.16 | 0.11 | 1.81 | H-Y[Aib]EGTFTSDYSI[Aib]LEKQAQ[Aib]AFVEWLIK([AEEA-γGlu-γGlu-γGlu-C18 diacid])GGPSEGASLRHYYNWLTRQRY-NH2 [Compound 300, Y-Aib-E-G-T-F-T-S-D-Y-S-I-Aib-L-E-K-Q-A-Q-Aib-A-F-V-E-W-L-I-K(1,3)-GGPSEGASLRHYYNWLTRQRY-NH2.C18DA-gGlu-gGlu-gGlu-OEG(1,2)] | 
10 | 0.23 | 0.35 | 2.35 | H-Y[Aib]EGTFTSDYSI[Aib]LEKQAQ[Aib]AFVEWLIK([Ahx-γGlu-γGlu-γGlu-γGlu-γGlu-C18 diacid])GGPSEGASLRHYYNWLTRQRY-NH2 [Compound 304, Y-Aib-E-G-T-F-T-S-D-Y-S-I-Aib-L-E-K-Q-A-Q-Aib-A-F-V-E-W-L-I-K(1,3)-GGPSEGASLRHYYNWLTRQRY-NH2.C18DA-gGlu-gGlu-gGlu-gGlu-gGlu-AHX(1,2)] | 
11 | 0.34 | 0.12 | 2.81 | H-Y[Aib]EGTFTSDYSI[Aib]LEKQAQ[Aib]AFVEWLIK([γGlu-γGlu-γGlu-γGlu-γGlu-γGlu-C20 diacid])GGPSSGASLRHYYNWLTRQRY-NH2 [Compound 235, Y-Aib-E-G-T-F-T-S-D-Y-S-I-Aib-L-E-K-Q-A-Q-Aib-A-F-V-E-W-L-I-K(1,3)-GGPSSGASLRHYYNWLTRQRY-NH2.C20DA-gGlu-gGlu-gGlu-gGlu-gGlu-gGlu(1,2)] | 
12 | 0.2 | 0.11 | 1.5 | H-Y[Aib]EGTFTSDYSI[Aib]LEKQAQ[Aib]AFVEWLIK([εLys-γGlu-γGlu-γGlu-γGlu-γGlu-γGlu-C20 diacid])GGPRSGASLRHYYNWLTRQRY-NH2 [Compound 168, Y-Aib-E-G-T-F-T-S-D-Y-S-I-Aib-L-E-K-Q-A-Q-Aib-A-F-V-E-W-L-I-K(1,3)-GGPRSGASLRHYYNWLTRQRY-NH2.C20DA-gGlu-gGlu-gGlu-gGlu-gGlu-gGlu-eLys(1,2)] | 
13 | 0.25 | 0.14 |  | H-Y[Aib]EGTFTSDYSI[Aib]LEKQAQ[Aib]AFVEWLIK([εLys-γGlu-γGlu-γGlu-γGlu-γGlu-γGlu-C20 diacid])GGPSSAVSLRHYYNWLTRQRY-NH2 [Compound 33, Y-Aib-E-G-T-F-T-S-D-Y-S-I-Aib-L-E-K-Q-A-Q-Aib-A-F-V-E-W-L-I-K(1,3)-GGPSSAVSLRHYYNWLTRQRY-NH2.C20DA-gGlu-gGlu-gGlu-gGlu-gGlu-gGlu-eLys(1,2)] | EC50 (hGLP1R; [4]): 3.17 nM
14 | 0.71 |  |  | H-Y[Aib]EGTFTSDYSI[Aib]LEKQAQ[Aib]EFVEWLIK([Ahx-γGlu-γGlu-γGlu-γGlu-γGlu-γGlu-C18 diacid])GGPSEGASLRHYYNWLTRQRY-NH2 [Compound 279, Y-Aib-E-G-T-F-T-S-D-Y-S-I-Aib-L-E-K-Q-A-Q-Aib-E-F-V-E-W-L-I-K(1,3)-GGPSEGASLRHYYNWLTRQRY-NH2.C18DA-gGlu-gGlu-gGlu-gGlu-gGlu-gGlu-AHX(1,2)] | 
15 | 0.62 |  | 2.62 | H-Y[Aib]EGTFTSDYSI[Aib]LEKQAQ[Aib]EFVEWLIK([γGlu-γGlu-γGlu-γGlu-C20 diacid])GGPSEGASLRHYYNWLTRQRY-NH2 [Compound 271, Y-Aib-E-G-T-F-T-S-D-Y-S-I-Aib-L-E-K-Q-A-Q-Aib-E-F-V-E-W-L-I-K(1,3)-GGPSEGASLRHYYNWLTRQRY-NH2.C20DA-gGlu-gGlu-gGlu-gGlu(1,2)] | 
16 | 0.94 |  |  | H-Y[Aib]EGTFTSDYSI[Aib]LE[Aib]QAQ[Aib]AFVEWLIK([εLys-γGlu-γGlu-γGlu-γGlu-γGlu-γGlu-C20 diacid])GGPSSGASLRHYYNWLTRQRY-NH2 [Compound 199, Y-Aib-E-G-T-F-T-S-D-Y-S-I-Aib-L-E-Aib-Q-A-Q-Aib-A-F-V-E-W-L-I-K(1,3)-GGPSSGASLRHYYNWLTRQRY-NH2.C20DA-gGlu-gGlu-gGlu-glu-gGlu-gGlu-eLys(1,2)] | 
